Assay results taken from patent US20020045780A1, “Biologically active spermidine analogues, pharmaceutical compositions and methods of treatment” (priority 1997, published 2002).
pIC50, pKi: −log10 of the molar value. Where “and” joins values, the source holds several entries; their conditions need not be identical. Identical values can stand only once. Entries after “also recorded” stand apart in the source; their conditions may differ. Counter-ions that a name gives are not always drawn. Like-named read-outs stand apart in the source and are kept apart here.

Key:
[1] = test system: polyamine transport apparatus; experiment: Competitive uptake determination: inhibition of [3H]spermidine transport into L1210 cells; type: cell-based, murine; details: analogue inhibition of spermidine transport
Summary of the method: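 Analogues competed with [3H]spermidine for uptake into L1210 cells. Values are Ki, derived from Lineweaver–Burk analysis as competitive inhibition with respect to spermidine.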

[2] = test system: spermidine/spermine acetyltransferase (SSAT); experiment: SSAT activity in treated L1210 cells; type: cell-based, murine; details: L1210, 10 μM at 48 hours (triamine analogues)
Text: Spermidine/spermine N^1-acetyltransferase activity was based on quantitation of [^14C]-N^1-acetylspermidine formed by acetylation of SPD with [^14C] acetyl coenzyme A according to the method of Libby et al [Biochem. Pharmacol., Vol. 38, supra]. Cells treated with DENSPM were positive controls.

[3] = test system: S-adenosylmethionine decarboxylase (AdoMetDC); experiment: AdoMetDC activity in treated L1210 cells; type: cell-based, murine; details: L1210, 1 μM at 6 hours
Summary of the method: (§1)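 L1210 cells treated with triamines; ODC activity measured at 4 h and AdoMetDC at 6 h as ^14CO2 released from [^14C]-carboxyl-labeled L-ornithine (ODC) or S-adenosyl-L-methionine (AdoMetDC). Untreated cells served as controls and DEHSPM-treated cells as positive controls.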

mice = type: in vivo; details: for Chronic toxicity in mice relative to the related tetraamine: ratio of chronic LD50 values, Table 7
Experimental: In the chronic toxicity regimen, mice were administered the polyamine analogue in three doses per day (t.i.d.) for six days for a total of eighteen injections per animal and observed for 10 days after the final dose for lethalities. […] A similar difference is also observed in the chronic toxicity of DE(3,4).
(§2) Acute and chronic toxicities were assessed in 10-12 week old CD-1 female mice from Harlan Sprague-Dawley. For acute toxicities, the polyamine analogues were administered in a single i.p. injection to groups of five or six animals at each dose. The animals were scored two hours after administration of the dose. All survivors were further observed for 10 days to assess late onset of toxicity from the single acute dose. In the chronic toxicity regimen, mice were administered polyamine analogue in three i.p. doses per day (t.i.d.) for six days, for a total of eighteen doses per animal. Appetite, weight and overall appearance were monitored daily. […] At least three test groups of 5-6 animals each, representing three different dose levels, were evaluated for each analogue tested. These dose levels were chosen so that at least two groups presented with lethalities, one with a high fraction of lethalities (>0.50, but <1.00).

[4] = test system: ornithine decarboxylase (ODC); experiment: ODC activity in treated L1210 cells; type: cell-based, murine; details: L1210, 1 μM at 4 hours
Summary of the method: as §1

L1210 cells [5] = experiment: Metabolic transformation of polyamine analogues by L1210 cells; type: in vitro ADME, murine; details: for Parent drug as % of total drug in the cell / Parent drug in L1210 cells / N-Monodealkylation (result in words): 48 hours; for N-Monodealkylation (result in words): Trihydrochloride; for N-dealkylation (result in words): L1210 cells, data not shown, concentration not given
Experimental: The cells were washed twice with cold RPMI-1640, and the pellet was treated with 0.6 N HClO4 (1 ml/10^7 cells). Polyamine contents of the perchloric acid extracts were quantitated by HPLC of the DANSYL derivatives [Bergeron et al, J. Med. Chem., Vol. 37, supra].

[6] = Acute toxicity in mice (single i.p. dose); type: in vivo; details: female, CD-1, mouse, in vivo, ip, mice, single dose i.p., scored two hours after dose, read-out: Acute LD50
Experimental: In the current study, the acute toxicity of six analogues and the chronic toxicity of two triamines were measured (Table 7). The value of all polyamine LD50s are shown in both mg/kg and mmol/kg for comparison. […] The animals were scored two hours after administration of the drug. It is clear that the acute LD50s for triamine analogues are approximately twice the acute LD50s for the corresponding tetraamine analogues.
as §2

L1210 cells [7] = experiment: Polyamine pool analysis in L1210 cells; type: cell-based, murine; details: for activity at 3 µM / activity at 15 µM / activity at 75 µM / activity at 100 µM / activity at 500 µM: Mus musculus, % of untreated control; for activity at 3 µM / activity at 15 µM / activity at 75 µM: L1210; for activity at 3 µM / activity at 15 µM / Analogue / activity at 75 µM: 48 hours; for Analogue: intracellular amount; for activity at 100 µM / activity at 500 µM: L1210, 48 h
Summary of the method: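 Cells were exposed to each analogue for 48 h at two concentrations. Washed pellets were extracted with 0.6 N HClO4 (1 ml/10^7 cells), and polyamines were quantified by HPLC of dansyl derivatives.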

L1210 cells [8] = experiment: L1210 growth inhibition, IC50 determination; type: cell-based, murine
Experimental: Murine L1210 leukemia cells (ATCC CCL 219) were maintained in logarithmic growth in RPMI-1640 medium containing 10% fetal calf serum or a semi-synthetic equivalent, NuSerum, 2% HEPES-MOPS buffer and 1 mM aminoguanidine.

L1210 cells [9] = details: cited from earlier work
L1210 cells [10] = details: 48 hours, cited from earlier work; for Analogue, corresponding tetraamine (in parentheses): intracellular amount
[11] = target: polyamine transport apparatus; details: inhibition of spermidine transport, L1210; read-out: Ki, corresponding tetraamine (in parentheses); cited from earlier work
[12] = test system: spermidine/spermine acetyltransferase (SSAT); details: L1210, 2 μM at 48 hours (tetraamine analogues); cited from earlier work
[13] = test system: S-adenosylmethionine decarboxylase (AdoMetDC); details: L1210, 1 μM at 6 hours; cited from earlier work
[14] = mice, i.p. t.i.d. × 6 days, hydrochloride salts
[15] = Mus musculus, L1210, 48 h, L1210, 48 hour exposure, read-out: IC50 48 hour
[16] = Mus musculus, L1210, 96 h, L1210, 96 hour exposure, read-out: IC50 96 hour
[17] = L1210, 48 hour exposure, read-out: IC50 48 hour, corresponding tetraamine (in parentheses)
[18] = L1210, 96 hour exposure, read-out: IC50 96 hour, corresponding tetraamine (in parentheses)

| SMILES | pKi [1] | AdoMetDC activity, percent of untreated control [3] | Chronic LD50 (triamines) (mice; [14]) [mg/kg-day] | Chronic LD50 (triamines) (mice; mouse, in vivo, ip) [mmol/kg/day] | ODC activity, percent of untreated control [4] | Parent drug as % of total drug in the cell (L1210 cells [5]; 100 μM analogue) [%] | Parent drug in L1210 cells (L1210 cells [5]; 100 μM analogue) [pmols/10^6] | LD50 at 2 h ([6]; hydrochloride salts) [mg/kg] | LD50 at 2 h [6] [µmol/kg] | activity at 15 µM (L1210 cells [7]; 15 μM, read-out: Put) [%] | activity at 15 µM (L1210 cells [7]; 15 μM, read-out: Spd) [%] | activity at 15 µM (L1210 cells [7]; 15 μM, read-out: Spm) [%] | Analogue (L1210 cells [7]; 15 μM) [nmol/10^6 cells] | pIC50 (L1210 cells [8]; [15]) | pIC50 (L1210 cells [8]; [16]) | pIC50 (L1210 cells [9]; [17]) | pIC50 (L1210 cells [9]; [18]) | pKi [11] | SSAT activity, corresponding tetraamine (in parentheses) [12] | AdoMetDC activity, corresponding tetraamine (in parentheses) [13] | other results |
| --- | --- | --- | --- | --- | --- | --- | --- | --- | --- | --- | --- | --- | --- | --- | --- | --- | --- | --- | --- | --- | --- |
| CCNCCCCCNCCCCNCC [DE(4,5), 3,8,14-Triazahexadecane Trihydrochloride] | 4.19 | 70% of untreated control | 375 | 1.11 | 100% of untreated control | 100 | 4215 | 555 | 1640 | 0 | 18 | 98 | 3.40 | 5.22 to 5.70 | 6.70 to 6.72 | – | – | – | – | – | SSAT activity, percent of untreated control ([2]; Trihydrochloride): 120% of untreated control and 120 (120) percent of untreated control; Chronic toxicity in mice relative to the related tetraamine (mice; Trihydrochloride): about eight-fold less toxic than the DE(4,5,4); also recorded: greater than ten-fold less toxic than DE(5,4,5); N-Monodealkylation (result in words) (L1210 cells [5]; 100 μM analogue): do not show significant N-deethylation; also recorded: no N-deethylation; activity at 3 µM (L1210 cells [7]; 3 μM, read-out: Put): 0%; activity at 3 µM (L1210 cells [7]; 3 μM, read-out: Spd): 47%; activity at 3 µM (L1210 cells [7]; 3 μM, read-out: Spm): 99%; Analogue (L1210 cells [7]; 3 μM): 1.20 nmol/10^6 cells; pIC50 (L1210 cells [8]; L1210, 48 hour exposure, Trihydrochloride, read-out: IC50 48 hour): 5.22 to 5.52 |
| CCNCCCCCNCCCCCNCC [DE(5,5), 3,9,15-Triazaheptadecane Trihydrochloride] | 3.76 | 109% of untreated control | – | – | 100% of untreated control | – | – | 500 | 1420 | 0 | 55 | 97 | 1.09 | 4.92 to 5.00 | 6.15 to 6.19 | – | – | – | – | – | SSAT activity, percent of untreated control [2]: 90% of untreated control; Parent drug as % of total drug in the cell (L1210 cells [5]; 75 μM analogue): 100%; Parent drug in L1210 cells (L1210 cells [5]; 75 μM analogue): 1585 pmols/10^6; N-Monodealkylation (result in words) (L1210 cells [5]; 75 μM analogue): do not show significant N-deethylation; N-Monodealkylation (result in words) (L1210 cells [5]; 75 μM analogue, listed as DE-[6,6]): no N-deethylation; activity at 75 µM (L1210 cells [7]; 75 μM, read-out: Put): 0%; activity at 75 µM (L1210 cells [7]; 75 μM, read-out: Spd): 23%; activity at 75 µM (L1210 cells [7]; 75 μM, read-out: Spm): 73%; Analogue (L1210 cells [7]; 75 μM): 1.59 nmol/10^6 cells |
| CCNCCCCNCCCNCC [DESPD, N^1,N^8-Diethylspermidine Trihydrochloride] | 4.71 | 68% of untreated control | 426 | 1.37 | 30% of untreated control | 96.3 | 4041 | > 650 | > 3220 | – | – | – | – | ~4.00 | 6.10 to 6.22 | – | – | – | – | – | SSAT activity, percent of untreated control [2]: 1380% of untreated control; Animals died on day 6 (mice; female, CD-1, mouse, in vivo, 15 mg/kg, 3 days): 4/5; Animals died on day 7 (mice; female, CD-1, mouse, in vivo, 15 mg/kg, 7 day): 5/5; Chronic toxicity in mice relative to the related tetraamine (mice): about five times less toxic than DE(3,4,3); activity at 100 µM (L1210 cells [7]; 100 μM, read-out: Put): 0%; activity at 100 µM (L1210 cells [7]; 100 μM, read-out: Spd): 5%; activity at 100 µM (L1210 cells [7]; 100 μM, read-out: Spm): 74%; activity at 500 µM (L1210 cells [7]; 500 μM, read-out: Put): 0%; activity at 500 µM (L1210 cells [7]; 500 μM, read-out: Spd): 0%; activity at 500 µM (L1210 cells [7]; 500 μM, read-out: Spm): 55%; Analogue (L1210 cells [7]; 100 μM): 4.61 nmol/10^6 cells; Analogue (L1210 cells [7]; 500 μM): 4.20 nmol/10^6 cells |
| CNCCCNCCCNCCCNC [DMNSPM] | – | – | – | – | – | – | – | – | – | – | – | – | – | – | – | < 4.00 | 5.60 | 5.25 | 200% of untreated control | 49% of untreated control | Put, corresponding tetraamine (in parentheses) (L1210 cells [10]; % of untreated control, 500 μM): (0) %; Spd, corresponding tetraamine (in parentheses) (L1210 cells [10]; % of untreated control, 500 μM): (3) %; Spm, corresponding tetraamine (in parentheses) (L1210 cells [10]; % of untreated control, 500 μM): (27) %; Analogue, corresponding tetraamine (in parentheses) (L1210 cells [10]; 100 μM): (2.14) nmol/10^6 cells; Analogue, corresponding tetraamine (in parentheses) (L1210 cells [10]; 500 μM): (1.84) nmol/10^6 cells; N-dealkylation (result in words) (L1210 cells [5]): no evidence of N-dealkylation |
| CNCCCNCCCCNCCCNC [DMSPM] | – | – | – | – | – | – | – | – | – | – | – | – | – | – | – | < 4.00 | 6.12 | 5.96 | 300% of untreated control | 40% of untreated control | Analogue, corresponding tetraamine (in parentheses) (L1210 cells [10]; 100 μM): (1.26) nmol/10^6 cells; Analogue, corresponding tetraamine (in parentheses) (L1210 cells [10]; 500 μM): (1.24) nmol/10^6 cells; N-dealkylation (result in words) (L1210 cells [5]): no evidence of N-dealkylation |
| CCNCCCNCCCNCCCN [MENSPM] | – | – | – | – | – | – | – | – | – | – | – | – | – | – | – | < 4.00 | 5.60 | 5.11 | 410% of untreated control | 33% of untreated control | – |
